Measurements published in patent publication US9951040B2, “1,3,5 -triazine based PI3K inhibitors as anticancer agents and a process for the preparation thereof” (Council of Scientific and Industrial Research, priority 2014, dated 2018).
Read-outs that look alike come from different tables or passages of the source.

Biological target: PI3K alpha (Homo sapiens, UniProt P42336)
Experiment: PI3K-α assay (ADP-Glo enzyme inhibition)
Type: biochemical
Details: at 500 nm
Method: Compounds were evaluated for their ability to inhibit class I PI3-kinase enzyme alpha as given below. PI3K-α Assay: PI3K alpha (diluted in 12.5 mM Glycine-NaOH (pH 8.5), 50 mM KCl, 2.5 mM MgCl2, 1 mM DTT, 0.05% CHAPS) is assayed in total volume of 20 ul containing 12.5 mM glycine-NaOH (pH 8.5), 50 mM KCl, 2.5 mM MgCl2, 1 mM DTT, 0.05% CHAPS, 0.01 mM ATP and 0.05 mM diC8 PIP2. The enzyme is assayed for 80 min after which 20 ul of ADP-Glo reagent is added. After a further incubation of 40 min, 40 ul of Kinase Detection Buffer is added. The assays are incubated for 40 min and then read on PerkinElmer Envision for 1 sec/well.

[1] = read-out: In vitro PI3K α % of inhibition
[2] = read-out: inhibition against PI3K alpha

PI3K alpha, sequence (P42336 whole entry, species assumed): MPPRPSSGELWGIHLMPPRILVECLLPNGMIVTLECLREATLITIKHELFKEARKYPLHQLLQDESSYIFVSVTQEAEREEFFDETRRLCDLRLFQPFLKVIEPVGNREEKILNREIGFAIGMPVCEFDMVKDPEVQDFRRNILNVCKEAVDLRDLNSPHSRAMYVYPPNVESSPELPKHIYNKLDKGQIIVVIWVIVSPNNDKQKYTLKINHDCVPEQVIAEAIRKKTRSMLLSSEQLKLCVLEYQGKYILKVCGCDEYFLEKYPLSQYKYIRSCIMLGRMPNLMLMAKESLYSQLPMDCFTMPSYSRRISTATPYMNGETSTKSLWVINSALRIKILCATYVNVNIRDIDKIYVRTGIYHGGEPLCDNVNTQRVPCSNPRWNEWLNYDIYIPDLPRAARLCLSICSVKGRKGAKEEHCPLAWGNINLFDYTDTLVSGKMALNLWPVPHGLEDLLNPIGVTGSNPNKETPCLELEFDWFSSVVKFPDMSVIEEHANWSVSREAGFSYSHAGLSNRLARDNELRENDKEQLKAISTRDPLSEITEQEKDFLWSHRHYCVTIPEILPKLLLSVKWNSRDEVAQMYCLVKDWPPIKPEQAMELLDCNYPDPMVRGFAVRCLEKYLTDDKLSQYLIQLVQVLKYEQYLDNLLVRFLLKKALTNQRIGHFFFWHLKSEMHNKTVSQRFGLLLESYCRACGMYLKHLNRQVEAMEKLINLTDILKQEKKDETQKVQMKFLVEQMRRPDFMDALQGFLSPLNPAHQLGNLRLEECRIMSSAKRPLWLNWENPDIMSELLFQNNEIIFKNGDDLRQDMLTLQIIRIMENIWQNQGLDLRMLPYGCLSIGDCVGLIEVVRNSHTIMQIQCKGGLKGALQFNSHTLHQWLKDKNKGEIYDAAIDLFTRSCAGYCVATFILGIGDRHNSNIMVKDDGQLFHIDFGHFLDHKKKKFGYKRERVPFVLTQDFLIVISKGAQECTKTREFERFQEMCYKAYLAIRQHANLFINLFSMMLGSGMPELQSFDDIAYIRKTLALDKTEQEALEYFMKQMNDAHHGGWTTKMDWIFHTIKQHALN
PI3K alpha, sequence (P27986 whole entry partner, species assumed): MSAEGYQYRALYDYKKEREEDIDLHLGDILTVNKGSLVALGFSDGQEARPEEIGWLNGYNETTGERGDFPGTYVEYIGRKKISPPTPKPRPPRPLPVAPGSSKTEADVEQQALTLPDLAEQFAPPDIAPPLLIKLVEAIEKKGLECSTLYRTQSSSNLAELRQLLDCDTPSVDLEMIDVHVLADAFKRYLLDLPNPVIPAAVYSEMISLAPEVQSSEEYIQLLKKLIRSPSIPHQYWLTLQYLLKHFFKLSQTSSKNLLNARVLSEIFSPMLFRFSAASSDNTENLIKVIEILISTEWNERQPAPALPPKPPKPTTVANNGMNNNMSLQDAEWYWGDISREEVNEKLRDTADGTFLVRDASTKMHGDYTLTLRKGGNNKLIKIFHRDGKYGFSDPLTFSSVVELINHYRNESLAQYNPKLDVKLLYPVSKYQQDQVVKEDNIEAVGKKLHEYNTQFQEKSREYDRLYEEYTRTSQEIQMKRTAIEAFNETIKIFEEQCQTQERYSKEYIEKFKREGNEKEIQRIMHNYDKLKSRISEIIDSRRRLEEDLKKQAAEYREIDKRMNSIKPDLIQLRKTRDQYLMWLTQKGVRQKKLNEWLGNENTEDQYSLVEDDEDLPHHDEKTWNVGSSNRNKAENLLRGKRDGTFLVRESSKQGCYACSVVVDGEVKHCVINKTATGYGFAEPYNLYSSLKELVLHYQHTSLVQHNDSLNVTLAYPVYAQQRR

SMILES: Fc1ccc(N(c2ccc(C(F)(F)F)cc2)C2CCN(c3nc(N4CCOCC4)nc(-n4c(C(F)F)nc5ccccc54)n3)CC2)cc1 [1B43, 1-(4-(2-(difluoromethyl)-1H-benzo[d]imidazol-1-yl)-6-morpholino-1,3,5-triazin-2-yl)-N-(4-fluorophenyl)-N-(4-(trifluoromethyl)phenyl)piperidin-4-amine]
- inhibition at 0.5 µM [1]: > 70%
- inhibition at 0.5 µM [2]: > 70%

SMILES: FC(F)(F)c1ccccc1NC1CCN(c2nc(N3CCOCC3)nc(-n3cnc4ccccc43)n2)CC1 [1B40, 1-(4-(1H-benzo[d]imidazol-1-yl)-6-morpholino-1,3,5-triazin-2-yl)-N-(2-(trifluoromethyl)phenyl)piperidin-4-amine]
- inhibition at 0.5 µM [1]: 50 to 70%

SMILES: COc1ccc(NC2CCN(c3nc(N4CCOCC4)nc(-n4c(C(F)F)cc5ccccc54)n3)CC2)cc1 [1B47, 1-(4-(2-(difluoromethyl)-1H-indol-1-yl)-6-morpholino-1,3,5-triazin-2-yl)-N-(4-methoxyphenyl)piperidin-4-amine]
- inhibition at 0.5 µM [1]: > 70%
- inhibition at 0.5 µM [2]: > 70%

SMILES: O=C(N(C(=O)C(F)(F)F)c1nc(N2CCOCC2)nc(N2CCC(Oc3ccccc3)CC2)n1)C(F)(F)F [1A12, 2,2,2-trifluoro-N-(4-morpholino-6-(4-phenoxypiperidin-1-yl)-1,3,5-triazin-2-yl)-N-(2,2,2-trifluoroacetyl)acetamide]
- inhibition at 0.5 µM [1]: 50 to 70%

SMILES: FC(F)c1cc2ccccc2n1-c1nc(N2CCOCC2)nc(N2CCC(Nc3ccc(C(F)(F)F)cc3)CC2)n1 [1B49, 1-(4-(2-(difluoromethyl)-1H-indol-1-yl)-6-morpholino-1,3,5-triazin-2-yl)-N-(4-(trifluoromethyl)phenyl)piperidin-4-amine]
- inhibition at 0.5 µM [1]: > 70%
- inhibition at 0.5 µM [2]: > 70%

SMILES: FC(F)(F)c1ccccc1OC1CCN(c2nc(N3CCOCC3)nc(-n3cnc4ccccc43)n2)CC1 [1B20, 4-(4-(1H-benzo[d]imidazol-1-yl)-6-(4-(2-(trifluoromethyl)phenoxy)piperidin-1-yl)-1,3,5-triazin-2-yl)morpholine]
- inhibition at 0.5 µM [1]: 50 to 70%

SMILES: Cc1ccc(OC2CCN(c3nc(N4CCOCC4)nc(N(C(=O)C(F)(F)F)c4ccccc4)n3)CC2)cc1 [1A8, 2,2,2-trifluoro-N-(4-morpholino-6-(4-(p-tolyloxy)piperidin-1-yl)-1,3,5-triazin-2-yl)-N-phenylacetamide]
- inhibition at 0.5 µM [1]: > 70%
- inhibition at 0.5 µM [2]: > 70%

SMILES: O=C(N(c1ccccc1)c1nc(N2CCOCC2)nc(N2CCC(Oc3ccc(C(F)(F)F)cc3)CC2)n1)C(F)(F)F [1A7, 2,2,2-trifluoro-N-(4-morpholino-6-(4-(4-(trifluoromethyl)phenoxy)piperidin-1-yl)-1,3,5-triazin-2-yl)-N-phenylacetamide]
- inhibition at 0.5 µM [1]: 50 to 70%

SMILES: CN(C(=O)C(F)(F)F)c1nc(N2CCOCC2)nc(N2CCC(Oc3ccccc3)CC2)n1 [1A11, 2,2,2-trifluoro-N-methyl-N-(4-morpholino-6-(4-phenoxypiperidin-1-yl)-1,3,5-triazin-2-yl)acetamide]
- inhibition at 0.5 µM [1]: 50 to 70%

SMILES: FC(F)c1cc2ccccc2n1-c1nc(N2CCOCC2)nc(N2CCC(Nc3ccc(OC(F)(F)F)cc3)CC2)n1 [1B48, 1-(4-(2-(difluoromethyl)-1H-indol-1-yl)-6-morpholino-1,3,5-triazin-2-yl)-N-(4-(trifluoromethoxy)phenyl)piperidin-4-amine]
- inhibition at 0.5 µM [1]: 50 to 70%

SMILES: Clc1ccccc1OC1CCN(c2nc(N3CCOCC3)nc(-n3cnc4ccccc43)n2)CC1 [1B19, 4-(4-(1H-benzo[d]imidazol-1-yl)-6-(4-(2-chlorophenoxy)piperidin-1yl)-1,3,5-triazin-2-yl)morpholine]
- inhibition at 0.5 µM [1]: > 70%
- inhibition at 0.5 µM [2]: > 70%

SMILES: Fc1ccc(N(c2ccc(F)cc2)C2CCN(c3nc(N4CCOCC4)nc(-n4c(C(F)F)nc5ccccc54)n3)CC2)cc1 [1B41, 1-(4-(2-(difluoromethyl)-1H-benzo[d]imidazol-1-yl)-6-morpholino-1,3,5-triazin-2-yl)-N,N-bis(4-fluorophenyl)piperidin-4-amine]
- inhibition at 0.5 µM [1]: > 70%
- inhibition at 0.5 µM [2]: > 70%

SMILES: Fc1ccc(NC2CCN(c3nc(N4CCOCC4)nc(-n4c(C(F)F)nc5ccccc54)n3)CC2)cc1 [1B21, 1-(4-(2-(difluoromethyl)-1H-benzo[d]imidazol-1-yl)-6-morpholino-1,3,5-triazin-2-yl)-N-(4-fluorophenyl)piperidin-4-amine]
- inhibition at 0.5 µM [1]: 50 to 70%

SMILES: FC(F)c1nc2ccccc2n1-c1nc(N2CCOCC2)nc(N2CCC(Nc3ccccc3C(F)(F)F)CC2)n1 [1B29, 1-(4-(2-(difluoromethyl)-1H-benzo[d]imidazol-1-yl)-6-morpholino-1,3,5-triazin-2-yl)-N-(2-(trifluoromethyl)phenyl)piperidin-4-amine]
- inhibition at 0.5 µM [1]: 50 to 70%

SMILES: Fc1ccc(N(c2ccc(Cl)cc2)C2CCN(c3nc(N4CCOCC4)nc(-n4c(C(F)F)nc5ccccc54)n3)CC2)cc1 [1B44, N-(4-chlorophenyl)-1-(4-(2-(difluoromethyl)-1H-benzo[d]imidazol-1-yl)-6-morpholino-1,3,5-triazin-2-yl)-N-(4-fluorophenyl)piperidin-4-amine]
- inhibition at 0.5 µM [1]: 50 to 70%

SMILES: FC(F)(F)Oc1ccc(NC2CCN(c3nc(N4CCOCC4)nc(-n4cnc5ccccc54)n3)CC2)cc1 [1B36, 1-(4-(1H-benzo[d]imidazol-1-yl)-6-morpholino-1,3,5-triazin-2-yl)-N-(4-(trifluoromethoxy)phenyl)piperidin-4-amine]
- inhibition at 0.5 µM [1]: 50 to 70%

SMILES: Cc1ccc(NC2CCN(c3nc(N4CCOCC4)nc(-n4cnc5cc(F)ccc54)n3)CC2)cc1 [1B33, 1-(4-(5-fluoro-1H-benzo[d]imidazol-1-yl)-6-morpholino-1,3,5-triazin-2-yl)-N-(p-tolyl)piperidin-4-amine]
- inhibition at 0.5 µM [1]: 50 to 70%

SMILES: FC(F)c1cc2ccccc2n1-c1nc(N2CCOCC2)nc(N2CCC(Nc3ccc(Cl)cc3)CC2)n1 [1B50, N-(4-chlorophenyl)-1-(4-(2-(difluoromethyl)-1H-indol-1-yl)-6-morpholino-1,3,5-triazin-2-yl)piperidin-4-amine]
- inhibition at 0.5 µM [1]: 50 to 70%

SMILES: Fc1ccc(NC2CCN(c3nc(N4CCOCC4)nc(-n4cnc5ccccc54)n3)CC2)cc1 [1B37, 1-(4-(1H-benzo[d]imidazol-1-yl)-6-morpholino-1,3,5-triazin-2-yl)-N-(4-fluorophenyl)piperidin-4-amine]
- inhibition at 0.5 µM [1]: > 70%
- inhibition at 0.5 µM [2]: > 70%

SMILES: Fc1ccc(N(c2ccncc2C(F)(F)F)C2CCN(c3nc(N4CCOCC4)nc(-n4c(C(F)F)nc5ccccc54)n3)CC2)cc1 [1B45, N-(1-(4-(2-(difluoromethyl)-1H-benzo[d]imidazol-1-yl)-6-morpholino-1,3,5-triazin-2-yl)piperidin-4-yl)-N-(4-fluorophenyl)-3-(trifluoromethyl)pyridin-4-amine]
- inhibition at 0.5 µM [1]: 50 to 70%

SMILES: Fc1ccc(N(c2ccc(Br)cc2)C2CCN(c3nc(N4CCOCC4)nc(-n4c(C(F)F)nc5ccccc54)n3)CC2)cc1 [1B42, N-(4-bromophenyl)-1-(4-(2-(difluoromethyl)-1H-benzo[d]imidazol-1-yl)-6-morpholino-1,3,5-triazin-2-yl)-N-(4-fluorophenyl)piperidin-4-amine]
- inhibition at 0.5 µM [1]: > 70%
- inhibition at 0.5 µM [2]: > 70%

SMILES: O=C(N(C(=O)C(F)(F)F)c1nc(N2CCOCC2)nc(N2CCC(Oc3ccccc3F)CC2)n1)C(F)(F)F [1A14, 2,2,2-trifluoro-N-(4-(4-(2-fluorophenoxy)piperidin-1-yl)-6-morpholino-1,3,5-triazin-2-yl)-N-(2,2,2-trifluoroacetyl)acetamide]
- inhibition at 0.5 µM [1]: > 70%
- inhibition at 0.5 µM [2]: > 70%

SMILES: Fc1ccc(OC2CCN(c3nc(N4CCOCC4)nc(-n4cnc5ccccc54)n3)CC2)cc1 [1B17, 4-(4-(1H-benzo[d]imidazol-1-yl)-6-(4-(4-fluorophenoxy)piperidin-1-yl)-1,3,5-triazin-2-yl)morpholine]
- inhibition at 0.5 µM [1]: 50 to 70%

SMILES: c1ccc(OC2CCN(c3nc(N4CCOCC4)nc(N(c4ccccc4)c4ccccc4)n3)CC2)cc1 [1A18, 4-morpholino-6-(4-phenoxypiperidin-1-yl)-N,N-diphenyl-1,3,5-triazin-2-amine]
- inhibition at 0.5 µM [1]: 50 to 70%

SMILES: FC(F)c1nc2ccccc2n1-c1nc(N2CCOCC2)nc(N2CCC(Oc3ccc(OC(F)(F)F)cc3)CC2)n1 [1B3, 4-(4-(2-(difluoromethyl)-1H-benzo[d]imidazol-1-yl)-6-(4-(4-(trifluoromethoxy)phenoxy)piperidin-1-yl)-1,3,5-triazin-2-yl)morpholine]
- inhibition at 0.5 µM [1]: 50 to 70%

SMILES: O=C(N(c1ccccc1)c1nc(N2CCOCC2)nc(N2CCC(Oc3ccccc3)CC2)n1)C(F)(F)F [1A4, 2,2,2-trifluoro-N-(4-morpholino-6-(4-phenoxypiperidin-1-yl)-1,3,5-triazin-2-yl)-N-phenylacetamide]
- inhibition at 0.5 µM [1]: 50 to 70%

SMILES: Fc1ccc2c(c1)ncn2-c1nc(N2CCOCC2)nc(N2CCC(Oc3ccc(C(F)(F)F)cc3)CC2)n1 [1B14, 4-(4-(5-fluoro-1H-benzo[d]imidazol-1-yl)-6-(4-(4-(trifluoromethyl)phenoxy)piperidin-1-yl)-1,3,5-triazin-2-yl)morpholine]
- inhibition at 0.5 µM [1]: 50 to 70%
